The values that follow come from PubChem BioAssay AID2060357 (Molecular Pharmacology Branch, DTP, NCI, 2025).

The test deals with 292921-168-R-J2-PDC spheroids with HUVEC/MSC, viability. Nature of the test: Anticancer human tumor 292921-168-R-J2-PDC patient-derived pancreatic carcinoma cell line growth inhibition [TAK]. Particulars: for viability, T/C: stronger effect = lower value. The method, boiled down:
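Tumor cells were grown as spheroids with HUVEC and hMSC (60:25:15) and treated with targeted agents combined with TAK-243 or ipatasertib. Drugs were tested in half-log steps down from near the clinical Cmax, or from 10 microM where Cmax was unknown.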

[1] abbreviates: curve of first compound, second compound 0.3 µM.
[2] abbreviates: curve of first compound, second compound 0.949 µM.
Setting [3] is: curve of first compound, second compound 3 µM.
[4] abbreviates: curve of first compound, second compound 9.49 µM.
[5] abbreviates: curve of first compound, second compound 30 µM.

“And” between values parts separate entries of the source, which are not always exact repeats. Equal values may be shown once.
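Further: spheroids exposed to drugs for seven days before readout.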

For orientation: IC50 means the concentration at which inhibition is half-maximal. The term viability, T/C denotes the result in the treated group divided by that in the control group, in per cent. With `CCCS(=O)(=O)Nc1ccc(F)c(C(=O)c2c[nH]c3ncc(-c4ccc(Cl)cc4)cc23)c1F` + CC(C)NCC(C(=O)N1CCN(c2ncnc3c2C(C)CC3O)CC1)c1ccc(Cl)cc1, the IC50 is 29900 nM under setting [1]; more than 100000 nM under setting [2]; 11000 nM under setting [3]; 5500 nM under setting [4]; less than 316 nM under setting [5]. For the same compound, the viability, T/C reads like this: (second compound 0.3 µM, first compound 0.316 µM) 109%; (second compound 0.3 µM, first compound 1 µM) 106%; (second compound 0.3 µM, first compound 3.16 µM) 102%; (second compound 0.3 µM, first compound 10 µM) 67.5%; (second compound 0.3 µM, first compound 31.6 µM) 44.7%; (second compound 0.3 µM, first compound 100 µM) 52.2%. Besides, the viability, T/C is 95.2% (second compound 0.949 µM, first compound 0.316 µM); 104% (second compound 0.949 µM, first compound 1 µM); 89.6% (second compound 0.949 µM, first compound 3.16 µM); 52.5% (second compound 0.949 µM, first compound 10 µM); 41.4% (second compound 0.949 µM, first compound 31.6 µM); 65.2% (second compound 0.949 µM, first compound 100 µM). The viability, T/C by setting is: (second compound 3 µM, first compound 0.316 µM) 94.7%; (second compound 3 µM, first compound 1 µM) 96%; (second compound 3 µM, first compound 3.16 µM) 81.3%; (second compound 3 µM, first compound 10 µM) 44.2%; (second compound 3 µM, first compound 31.6 µM) 41%; (second compound 3 µM, first compound 100 µM) 16.8%. For the same compound, the viability, T/C was 72.5% (second compound 9.49 µM, first compound 0.316 µM); 75.4% (second compound 9.49 µM, first compound 1 µM); 62.5% (second compound 9.49 µM, first compound 3.16 µM); 35.5% (second compound 9.49 µM, first compound 10 µM); 26.2% (second compound 9.49 µM, first compound 31.6 µM); 17.7% (second compound 9.49 µM, first compound 100 µM). In addition, the viability, T/C reads like this: (second compound 30 µM, first compound 0.316 µM) 48.3%; (second compound 30 µM, first compound 1 µM) 49.2%; (second compound 30 µM, first compound 3.16 µM) 35.7%; (second compound 30 µM, first compound 10 µM) 16.6%; (second compound 30 µM, first compound 31.6 µM) 14.9%; (second compound 30 µM, first compound 100 µM) 9.5%.
Consider `Cn1cnc2c(F)c(Nc3ccc(Br)cc3Cl)c(C(=O)NOCCO)cc21`, for which the viability, T/C is 57.2% and 47.3% (compound 0.00949 µM); 40.2% and 34.1% (compound 0.03 µM); 33.8% and 27.4% (compound 0.0949 µM); 31% and 24.2% (compound 0.3 µM); 25.6% and 21.6% (compound 0.949 µM); 15.3% and 11.8% (compound 3 µM). Moreover, the IC50 (curve of compound) was 15.8 nM and < 9.49 nM.
As to `CC(=O)Nc1cccc(-n2c(=O)n(C3CC3)c(=O)c3c(Nc4ccc(I)cc4F)n(C)c(=O)c(C)c32)c1`, the viability, T/C by setting is: (compound 94.9 pM) 91.6% and 97.1%; (compound 0.0003 µM) 58.9% and 67.7%; (compound 0.000949 µM) 36.9% and 48.5%; (compound 0.003 µM) 25.6% and 25.7%; (compound 0.00949 µM) 17.6% and 20.3%; (compound 0.03 µM) 11.1%. Besides, the IC50 (curve of compound) is 0.49 nM and 0.767 nM.
In the case of `CC(C)NCC(C(=O)N1CCN(c2ncnc3c2C(C)CC3O)CC1)c1ccc(Cl)cc1` (stereo not drawn), the viability, T/C reads like this: (compound 0.3 µM) 87.8% [middle of 10 runs]; (compound 0.949 µM) 83% [middle of 10 runs]; (compound 3 µM) 77.3% [middle of 10 runs]; (compound 9.49 µM) 62.3% [middle of 10 runs]; (compound 30 µM) 42.4% [middle of 10 runs]. The IC50 (compound alone, run of 02/20/2020) was found to be 18800 nM.
On to `Cc1nc(NC(=O)N2CCCC2C(N)=O)sc1-c1ccnc(C(C)(C)C(F)(F)F)c1` (stereo not drawn), for which the viability, T/C by setting is: (compound 0.0316 µM) 97.9% and 99.8%; (compound 0.1 µM) 78.4% and 71.1%; (compound 0.316 µM) 61.5% and 55.7%; (compound 1 µM) 44.4% and 38.9%; (compound 3.16 µM) 30.1% and 28.9%; (compound 10 µM) 20.4% and 22.4%. Also, the IC50 (curve of compound) was 672 nM and 422 nM.
For `CC(C)(C)c1nc(-c2cccc(NS(=O)(=O)c3c(F)cccc3F)c2F)c(-c2ccnc(N)n2)s1`, the viability, T/C was 109% and 122% (compound 0.0316 µM); 117% and 139% (compound 0.1 µM); 111% and 110% (compound 0.316 µM); 85% and 84.2% (compound 1 µM); 62.5% and 67.1% (compound 3.16 µM); 34% and 30.9% (compound 10 µM). For the same compound, the half-inhibitory concentration (IC50) (curve of compound) came out at 4980 nM.
Take `CC(C)CC(NC(=O)CNC(=O)c1cc(Cl)ccc1Cl)B1OC(=O)CC(CC(=O)O)(C(=O)O)O1` (stereo not drawn) + CC(C)NCC(C(=O)N1CCN(c2ncnc3c2C(C)CC3O)CC1)c1ccc(Cl)cc1: the IC50 by setting is: under setting [1], 27.6 nM; under setting [2], 23.9 nM; under setting [3], 23.7 nM; under setting [4], 17.9 nM; under setting [5], less than 0.316 nM. The viability, T/C reads like this: (second compound 0.3 µM, first compound 0.000316 µM) 91.7%; (second compound 0.3 µM, first compound 0.001 µM) 86.2%; (second compound 0.3 µM, first compound 0.00316 µM) 88.8%; (second compound 0.3 µM, first compound 0.01 µM) 86.2%; (second compound 0.3 µM, first compound 0.0316 µM) 45.2%; (second compound 0.3 µM, first compound 0.1 µM) 10.8%. Also, the viability, T/C reads like this: (second compound 0.949 µM, first compound 0.000316 µM) 84.6%; (second compound 0.949 µM, first compound 0.001 µM) 85.8%; (second compound 0.949 µM, first compound 0.00316 µM) 85.2%; (second compound 0.949 µM, first compound 0.01 µM) 85.5%; (second compound 0.949 µM, first compound 0.0316 µM) 38.8%; (second compound 0.949 µM, first compound 0.1 µM) 11%. The viability, T/C was 75.8% (second compound 3 µM, first compound 0.000316 µM); 80.2% (second compound 3 µM, first compound 0.001 µM); 73.3% (second compound 3 µM, first compound 0.00316 µM); 80.2% (second compound 3 µM, first compound 0.01 µM); 40.9% (second compound 3 µM, first compound 0.0316 µM); 9.38% (second compound 3 µM, first compound 0.1 µM). Moreover, the viability, T/C reads like this: (second compound 9.49 µM, first compound 0.000316 µM) 62%; (second compound 9.49 µM, first compound 0.001 µM) 60.3%; (second compound 9.49 µM, first compound 0.00316 µM) 60.4%; (second compound 9.49 µM, first compound 0.01 µM) 68.2%; (second compound 9.49 µM, first compound 0.0316 µM) 37.6%; (second compound 9.49 µM, first compound 0.1 µM) 6.83%. In addition, the viability, T/C (second compound 30 µM, first compound 0.000316 µM) was 41.4%; the viability, T/C (second compound 30 µM, first compound 0.001 µM) is 41.2%; the viability, T/C (second compound 30 µM, first compound 0.00316 µM) was 42.4%; the viability, T/C (second compound 30 µM, first compound 0.01 µM) was 44.2%; the viability, T/C (second compound 30 µM, first compound 0.0316 µM) was 31.8%; the viability, T/C (second compound 30 µM, first compound 0.1 µM) was 7.05%.
Regarding `COC1CC2CCC(C)C(O)(O2)C(=O)C(=O)N2CCCCC2C(=O)OC(C(C)CC2CCC(OCCO)C(OC)C2)CC(=O)C(C)C=C(C)C(O)C(OC)C(=O)C(C)CC(C)C=CC=CC=C1C` (stereo not drawn), the viability, T/C reads like this: (compound 0.000316 µM) 83.9% and 83.3%; (compound 0.001 µM) 76.6% and 71.4%; (compound 0.00316 µM) 71.5% and 66.5%; (compound 0.01 µM) 64.1% and 59%; (compound 0.0316 µM) 59.8% and 64.2%; (compound 0.1 µM) 59.2% and 62.3%. Also, the IC50 (curve of compound) is more than 100 nM.
Turning to `CC(C)CC(NC(=O)CNC(=O)c1cc(Cl)ccc1Cl)B1OC(=O)CC(CC(=O)O)(C(=O)O)O1` (stereo not drawn), the viability, T/C is, setting by setting: (compound 0.000316 µM) 99.7% and 104%; (compound 0.001 µM) 107% and 92.5%; (compound 0.00316 µM) 105% and 99.2%; (compound 0.01 µM) 107% and 102%; (compound 0.0316 µM) 37.5% and 35.4%; (compound 0.1 µM) 11.4% and 6.93%. For the same compound, the IC50 (curve of compound) is 25.5 nM and 24.4 nM.
